Measured values from PMC7872314, “Modeling Bioavailable Concentrations in Zebrafish Cell Lines and Embryos Increases the Correlation of Toxicity Potencies across Test Systems” (Environmental Science & Technology, 2020).
Like-named read-outs stand apart in the source and are kept apart here.

Assays:
[1] = system: ZFL (hepatocytes) cell line; assay: cells; format: cell-based, zebrafish (Danio rerio); conditions: Danio rerio, Hepatocyte
[2] = system: ZF4 (fibroblasts) cell line; assay: MTS assay (MTS/BCA multiplex), NAD(P)H metabolism; format: cell-based, zebrafish (Danio rerio); conditions: Danio rerio, Fibroblast
[3] = ref Comptox, PubChem or DrugBank; cited from earlier work
zebrafish embryos [4] = assay: animal or person; format: in vivo, zebrafish (Danio rerio); conditions: for EC50: Danio rerio
[5] = system: diverse mammalian cell assay results; design: method as in https://comptox.epa.gov/dashboard/; conditions: COMPTOX; ref https://comptox.epa.gov/dashboard/; read-out: median AC50; cited from earlier work
ZF4 and ZFL cell lines = assay: Cytotoxicity assays, all endpoints, both cell lines (mean/range); format: cell-based, zebrafish (Danio rerio); conditions: 48 h, mean of all cytotoxicity endpoints (without LDH) in ZF4 and ZFL
[6] = system: ZFL (hepatocytes) cell line; assay: cells; format: cell-based, zebrafish (Danio rerio); conditions: Danio rerio, Hepatocyte; remark: listed apart in the source
[7] = system: ZF4 (fibroblasts) cell line; assay: Neutral red, fluorescence (NRf), AB/CFDA/NR multiplex, lysosome stability; format: cell-based, zebrafish (Danio rerio); conditions: Danio rerio, Fibroblast
[8] = system: ZF4 (fibroblasts) cell line; assay: ATP assay (ATP/LDH multiplex), ATP metabolism; format: cell-based, zebrafish (Danio rerio); conditions: Danio rerio, Fibroblast
[9] = system: ZF4 (fibroblasts) cell line; assay: alamarBlue (AB) endpoint of AB/CFDA/NR multiplex, cellular respiration; format: cell-based, zebrafish (Danio rerio); conditions: Danio rerio, Fibroblast
[10] = system: ZF4 (fibroblasts) cell line; assay: Neutral red, absorbance (NRa), AB/CFDA/NR multiplex, lysosome stability; format: cell-based, zebrafish (Danio rerio); conditions: Danio rerio, Fibroblast
[11] = system: ZFL (hepatocytes) cell line; assay: cells; format: cell-based, zebrafish (Danio rerio); conditions: Danio rerio, Hepatocyte; remark: listed apart in the source
[12] = system: ZFL (hepatocytes) cell line; assay: cells; format: cell-based, zebrafish (Danio rerio); conditions: Danio rerio, Hepatocyte; remark: listed apart in the source
[13] = system: ZFL (hepatocytes) cell line; assay: cells; format: cell-based, zebrafish (Danio rerio); conditions: Danio rerio, Hepatocyte; remark: listed apart in the source
[14] = system: ZFL (hepatocytes) cell line; assay: cells; format: cell-based, zebrafish (Danio rerio); conditions: Danio rerio, Hepatocyte; remark: listed apart in the source
zebrafish embryos [15] = system: zebrafish embryos; design: method as in earlier work; conditions: nominal, cited from earlier work
[16] = system: ZF4 (fibroblasts) cell line; assay: BCA assay (MTS/BCA multiplex), protein amount; format: cell-based, zebrafish (Danio rerio); conditions: Danio rerio, Fibroblast
[17] = system: ZF4 (fibroblasts) cell line; assay: CFDA endpoint of AB/CFDA/NR multiplex, membrane stability; format: cell-based, zebrafish (Danio rerio); conditions: Danio rerio, Fibroblast
[18] = system: zebrafish cell lines vs zebrafish embryo; assay: Potency ratios IC50;x/EC50;x (cytotoxicity assays vs mFET); design: species or system zebrafish (Danio rerio); conditions: median over cytotoxicity endpoints, nominal, 48 h cells / 48 hpf mFET
[19] = system: ZFL (hepatocytes) cell line; assay: cells; format: cell-based, zebrafish (Danio rerio); conditions: Danio rerio, Hepatocyte; remark: listed apart in the source

## CO[C@H]1C[C@H](O[C@H]2[C@H](C)O[C@@H](O[C@@H]3/C(C)=C/C[C@@H]4C[C@@H](C[C@]5(C=C[C@H](C)[C@@H](C6CCCCC6)O5)O4)OC(=O)[C@@H]4C=C(C)[C@@H](O)[C@H]5OC/C(=C\C=C\[C@@H]3C)[C@]54O)C[C@@H]2OC)O[C@@H](C)[C@@H]1O [Doramectin, doramectin]
[1]; ATP - ZFL, log10 of IC50, read-out: LogIC50 (converted)
  IC50: 15.9 µM
[1]; ATP - ZFL, read-out: IC50
  IC50: 15.9 µM
[1]; ZFL, 48 h exposure, nominal, log10, read-out: logIC50 (log10 IC50;nom) ATP (converted)
  IC50: 15.8 µM
[1]; ZFL, 48 h exposure, nominal, read-out: IC50;nom ATP
  IC50: 15.9 µM
[2]; MTS - ZF4, log10 of IC50, read-out: LogIC50 (converted)
  IC50: 12.3 µM
[2]; MTS - ZF4, read-out: IC50
  IC50: 12.3 µM
[2]; ZF4, 48 h exposure, nominal, log10, read-out: logIC50 (log10 IC50;nom) MTS (converted)
  IC50: 12.3 µM
[2]; ZF4, 48 h exposure, nominal, read-out: IC50;nom MTS
  IC50: 12.3 µM
[3]
  BCF: 5.26
  Physiological charge: 0
  logKoa: 9.63
  logKow: 5.24
  pKa (Strongest Acidic): 12.47
  pKa (Strongest Basic): -3.4
  w_solubility (water solubility): 39.5 µM
Zebrafish embryos [4]; 48 hpf time point less sensitive than 144 hpf
  difference in toxicity (EC50;nom) between 48 hpf and 144 hpf: marginally more toxic
Zebrafish embryos [4]; 48 hpf, nominal, log10, listed as Dor
  log EC50;nom (mFET): -5.914 M
Zebrafish embryos [4]; 48 hpf, nominal, log10, read-out: log EC50;nom (mFET) (converted)
  EC50: 1230 nM
Zebrafish embryos [4]; 48 hpf, nominal, read-out: EC50;nom (embryo)
  EC50: 1.1 µg/mL
Zebrafish embryos [4]; read-out: EC50 48hpf
  EC50: 1220 nM
Zebrafish embryos [4]; read-out: EC50;nom (mFET)
  EC50: 1220 nM
[5]
  AC50: 1870 nM
ZF4 and ZFL cell lines; Danio rerio, log10, read-out: Mean log IC50nom (converted)
  IC50: 9.12 µM
ZF4 and ZFL cell lines; log10, listed as Dor
  Mean log IC50nom: -5.037 M
[6]; AB - ZFL, log10 of IC50, read-out: LogIC50 (converted)
  IC50: 6.74 µM
[6]; AB - ZFL, read-out: IC50
  IC50: 6.74 µM
[6]; ZFL, 48 h exposure, nominal, log10, read-out: logIC50 (log10 IC50;nom) AB (converted)
  IC50: 6.76 µM
[6]; ZFL, 48 h exposure, nominal, read-out: IC50;nom AB
  IC50: 6.74 µM
[7]; NR-fluo - ZF4, log10 of IC50, read-out: LogIC50 (converted)
  IC50: 15.3 µM
[7]; NR-fluo - ZF4, read-out: IC50
  IC50: 15.3 µM
[7]; ZF4, 48 h exposure, nominal, log10, read-out: logIC50 (log10 IC50;nom) NRf (converted)
  IC50: 15.5 µM
[7]; ZF4, 48 h exposure, nominal, read-out: IC50;nom NRf
  IC50: 15.3 µM
[8]; ATP - ZF4, log10 of IC50, read-out: LogIC50 (converted)
  IC50: 4.38 µM
[8]; ATP - ZF4, read-out: IC50
  IC50: 4.38 µM
[8]; ZF4, 48 h exposure, nominal, log10, read-out: logIC50 (log10 IC50;nom) ATP (converted)
  IC50: 4.37 µM
[8]; ZF4, 48 h exposure, nominal, read-out: IC50;nom ATP
  IC50: 4.38 µM
[9]; AB - ZF4, log10 of IC50, read-out: LogIC50 (converted)
  IC50: 17.1 µM
[9]; AB - ZF4, read-out: IC50
  IC50: 17.1 µM
[9]; ZF4, 48 h exposure, nominal, log10, read-out: logIC50 (log10 IC50;nom) AB (converted)
  IC50: 17 µM
[9]; ZF4, 48 h exposure, nominal, read-out: IC50;nom AB
  IC50: 17.1 µM
[10]; NR-abs - ZF4, log10 of IC50, read-out: LogIC50 (converted)
  IC50: 14.6 µM
[10]; NR-abs - ZF4, read-out: IC50
  IC50: 14.6 µM
[10]; ZF4, 48 h exposure, nominal, log10, read-out: logIC50 (log10 IC50;nom) NRa (converted)
  IC50: 14.5 µM
[10]; ZF4, 48 h exposure, nominal, read-out: IC50;nom NRa
  IC50: 14.6 µM
[10]; ZF4 cell line, NRa endpoint, nominal, read-out: IC50;nom
  IC50: 13.1 µg/mL
[11]; MTS - ZFL, log10 of IC50, read-out: LogIC50 (converted)
  IC50: 9.41 µM
[11]; MTS - ZFL, read-out: IC50
  IC50: 9.42 µM
[11]; ZFL, 48 h exposure, nominal, log10, read-out: logIC50 (log10 IC50;nom) MTS (converted)
  IC50: 9.33 µM
[11]; ZFL, 48 h exposure, nominal, read-out: IC50;nom MTS
  IC50: 9.42 µM
[12]; BCA - ZFL, log10 of IC50, read-out: LogIC50 (converted)
  IC50: 4.44 µM
[12]; BCA - ZFL, read-out: IC50
  IC50: 4.44 µM
[12]; ZFL, 48 h exposure, nominal, log10, read-out: logIC50 (log10 IC50;nom) BCA (converted)
  IC50: 4.47 µM
[12]; ZFL, 48 h exposure, nominal, read-out: IC50;nom BCA
  IC50: 4.44 µM
[13]; NR-fluo - ZFL, log10 of IC50, read-out: LogIC50 (converted)
  IC50: 5.08 µM
[13]; NR-fluo - ZFL, read-out: IC50
  IC50: 5.08 µM
[13]; ZFL, 48 h exposure, nominal, log10, read-out: logIC50 (log10 IC50;nom) NRf (converted)
  IC50: 5.13 µM
[13]; ZFL, 48 h exposure, nominal, read-out: IC50;nom NRf
  IC50: 5.08 µM
[14]; NR-abs - ZFL, log10 of IC50, read-out: LogIC50 (converted)
  IC50: 4.52 µM
[14]; NR-abs - ZFL, read-out: IC50
  IC50: 4.52 µM
[14]; ZFL, 48 h exposure, nominal, log10, read-out: logIC50 (log10 IC50;nom) NRa (converted)
  IC50: 4.57 µM
[14]; ZFL, 48 h exposure, nominal, read-out: IC50;nom NRa
  IC50: 4.52 µM
Zebrafish embryos [15]; 144 hpf, converted
  EC50: 645 nM
Zebrafish embryos [15]; log10
  logEC50 144 hpf: -6.19 M
[16]; BCA - ZF4, log10 of IC50, read-out: LogIC50 (converted)
  IC50: 9.03 µM
[16]; BCA - ZF4, read-out: IC50
  IC50: 9.03 µM
[16]; ZF4, 48 h exposure, nominal, log10, read-out: logIC50 (log10 IC50;nom) BCA (converted)
  IC50: 9.12 µM
[16]; ZF4, 48 h exposure, nominal, read-out: IC50;nom BCA
  IC50: 9.03 µM
[17]; CFDA - ZF4, log10 of IC50, read-out: LogIC50 (converted)
  IC50: 16.8 µM
[17]; CFDA - ZF4, read-out: IC50
  IC50: 16.8 µM
[17]; ZF4, 48 h exposure, nominal, log10, read-out: logIC50 (log10 IC50;nom) CFDA (converted)
  IC50: 17 µM
[17]; ZF4, 48 h exposure, nominal, read-out: IC50;nom CFDA
  IC50: 16.8 µM
[18]
  potency ratio IC50;nom/EC50;nom (median): 7.68
[19]; CFDA - ZFL, log10 of IC50, read-out: LogIC50 (converted)
  IC50: 9.33 µM
[19]; CFDA - ZFL, read-out: IC50
  IC50: 9.33 µM
[19]; ZFL, 48 h exposure, nominal, log10, read-out: logIC50 (log10 IC50;nom) CFDA (converted)
  IC50: 9.33 µM
[19]; ZFL, 48 h exposure, nominal, read-out: IC50;nom CFDA
  IC50: 9.33 µM
